Results taken from patent US7977384B1, “Anticancer tobacco cembranoids” (The University of Louisiana at Monroe, priority 2007, dated 2011).
Read-outs that look alike come from different tables or passages of the source. Each block holds one molecule with its values, some of them ahead of it. Ends that are not written are not given here.

How the values were obtained:
[1] = test system: highly malignant +SA mouse mammary epithelial cell line; assay: Antiproliferative MTT assay on +SA mammary epithelial cells; type: cell-based; conditions: for IC50: 4-day culture, MTT
Protocol: The antiproliferative effects of semisynthetic derivatives were tested in culture on the highly malignant +SA mouse mammary epithelial cell line maintained on serum-free media and containing 10 ng/mL EGF and 10 μg/mL insulin as mitogens. […] After a 4-day culture period, viable +SA cell number was determined by the 3-(4,5-dimethylthi-azol-2yl)-2,5-diphenyl tetrazolium bromide (MTT) colorimetric assay.

PC-3M cells [2] = assay: Transepithelial resistance (TER), stability of junctional complexes; type: cell-based, human
Protocol: Stability of junctional complexes can be estimated by the measurement of transepithelial resistance (TER). Cells were plated at confluency and grown on six well Transwell filters (0.4 μm pore size) in complete medium. TER values were measured in duplicate wells in every 12 hours using EVOM voltohmmeter (World Precision Instruments). The TER values were normalized to the area of the monolayer filter, and calculated by subtracting the blank values from the filter and bathing medium. All cell culture media were supplemented with 25 mM Hepes, pH 7.4, and the integrity and cell density of monolayers were carefully monitored during TER measurement studies.

PC-3M cells [3] = assay: Permeability assay (paracellular diffusion of dextran); type: cell-based, human; conditions: CT alone
Protocol: Permeability assay (Paracellular diffusion of Dextran). Cells were plated at confluency and grown on 12 well Transwell filters in complete medium for optimum TER development. Tetramethyl-rhodamine-dextran, with an average molecular mass of 4 kDa (available from Sigma in St. Louis, Mo.) dissolved in Hanks' Balanced Salt Solution (HBSS) to a concentration of 1 mg/ml was added to the upper chamber. The lower chamber was replaced with HBSS. At various time intervals, 100 μl aliquots were collected from the lower chamber and assayed […] spectrophotometer using excitation 530 and emission 590.

PC-3M cells [4] = assay: […] invasion assay; type: cell-based, human
Protocol: Invasion assays were conducted in 24-well, two compartmented, invasion chambers sold under the trademark “[sequence]” and available from Becton Dickinson, Bedford, Mass. Exponentially growing prostate cancer cell line was serum-starved for 24 hours with basal RPMI medium containing no serum or growth factors (but containing 0.1% BSA, 10 mM HEPES, 4 mM L-glutamine, 100 IU/mL penicillin G and 100 mg/mL streptomycin). The cells were then harvested and seeded at a density of 25×10^3 cells/well in the upper insert of the [sequence] invasion chamber. The lower chamber received the chemo-attractant medium, which consisted of 90% basal RPMI medium and 10% conditioned medium from the cultures of PC-3M cells expressing active Gas protein. The incubations were carried out for 24 hours, after which the [sequence] […] The number of cells migrated on the outer bottom side of the insert was counted under the microscope in six or more randomly selected fields (magnification: 100×). The final results were expressed as mean +/− SEM per 100× field. […]
To correct this probability, the growth rate of PC-3M cells was determined under identical culture conditions. […] Mean percent increase in the cell number was determined at the end of the incubation period by counting the net increase in the number of cells. […]

PC-3M cells [5] = assay: Growth rate of PC-3M cells by cell counting (correction for the invasion assay); type: cell-based, human; conditions: CT 50 nM, 1-24 hours; vehicle control=1
Protocol: To correct this probability, the growth rate of PC-3M cells was determined under identical culture conditions. 25×10^3 cells were plated at hourly intervals in six-well dishes and cultured with/without CT (50 nM) for 1-24 hours. Mean percent increase in the cell number was determined at the end of the incubation period by counting the net increase in the number of cells. […] This correction was applied to the results of invasion assays.

PC-3M cells [6] = assay: MTT proliferation assay, prostate cell line PC-3M; type: cell-based, human; conditions: 50 nM dose
Protocol: Proliferation of PC-3M MTT Assays. The growth of prostate cell line PC-3M was measured by 3-(4,5-dimethylthi-azol-2yl)-2,5-diphenyl tetrazolium bromide (MTT) assay. Exponentially growing cells were plated in a 96-well plate at a density of 8×10^3 cells per well and allowed to attach for 24 hours. Complete growth medium was replaced with 100 μl of RPMI serum-free medium (GIBCO-Invitrogen, NY) and culture continued at 37° C. under 5% CO2. After 24 hours of culture, the cells were treated with MTT solution at 37° C. for 4 hours. The color reaction was stopped by the addition of solubilization/stop solution (100 μl/well), and the incubation at 37° C. continued to completely dissolve the formazan product. Absorbance of the samples was determined at 595 nm with an ELISA plate reader (Bio-Rad, Hercules, Calif.).

[7] = Substrate control (tested compound in blank media without microorganisms); type: physicochemical; conditions: 14 days
Description: This conclusion was based on the rapid enzymatic actetate hydrolysis by most microbial species during biocatalytic screening while compound 22 was stable for 14 days in substrate control (tested compound in blank media without microorganisms).

[8] = 15-40 μM dose, compared to vehicle controls

Molecule: CC(=O)O[C@H]1/C=C(\C)CC[C@@H]2OC(=N)S[C@@]2(C)CC[C@@H](C(C)C)/C=C/[C@@](C)(O)C1 [Compound 28, 6-O-acetyl-(1S,2E,4S,6R,7Z,11S,12S)-2,7-cembradiene-11,12-oxathiaol-21-imino-4,6-diol]
antiproliferative activity [1]: devoid of activity

Molecule: C/C1=C\C(=O)C[C@](C)(O)/C=C/[C@H](C(C)C)CC/C(C)=C/CC1 [Compound 29, (1S,2E,4S,7E,11E)-2,7,11-cembratriene-4-ol-6-one]
antiproliferative activity [1]: low antiproliferative activity

Molecule: CCNC(=O)O[C@H]1/C=C(/C)CC/C=C(\C)CC[C@@H](C(C)C)/C=C/[C@](C)(O)C1 [Compound 9, 6-O-[N-(ethyl)carbamoyl](1S,2E,4R,6R,7Z,11E)-2,7,11-cembratriene-4,6-diol]
stabilization of junctional complexes (PC-3M cells [2]; baseline and CT-stimulated TER and paracellular permeability): stabilized junctional complexes

Molecule: Calcitonin (CGNLSTCMLGTYTQDFNKFHTFPQTAIGVGAP; ends and bridges not checked; cysteine pairing not given here; UniProt P01258 85-116, looked up) [CT, reference compound]
paracellular permeability of PC-3M cells (PC-3M cells [3]): increased | effect on TER of PC-3M cell cultures (PC-3M cells [2]; 50 nM CT): dramatic reduction | increase in the number of invaded cells (PC-3M cells [4]; pooled data of multiple experiments): two-fold | relative CT-induced increase in cell number, pooled results of all time points (PC-3M cells [5]): 1.19

Molecule: CC(=O)O[C@H]1/C=C(\C)CC/C=C(\C)[C@@H](O)C[C@@H](C(C)C)/C=C/[C@@](C)(O)C1 [Compound 26, (1S,2E,4S,6R,7E,11E,13S)-2,7,11-cembratriene-4,6,13-triol-6-O-acetate]
antiproliferative activity [1]: much more active than the 13R | IC50 [1]: 20 µM | antiproliferative activity [1, 8]: potent antiproliferative activity

Molecule: CC(C)=CCC/C(C)=C/CC/C(C)=C/CC[C@]1(C)CCc2cc(O)cc(C)c2O1 [δ-tocotrienol, reference compound]
IC50 [1]: 7 µM

Molecule: CC(=O)O[C@H]1/C=C(\C)CC/C=C(\C)[C@H](O)C[C@@H](C(C)C)/C=C/[C@@](C)(O)C1 [Compound 25, (1S,2E,4S,6R,7E,11E,13R)-2,7,11-cembratriene-4,6,13-triol-6-O-acetate]
IC50 [1]: 30 µM | antiproliferative activity [1, 8]: potent antiproliferative activity

Molecule: CC(=O)/C=C/C(CC/C(C)=C/CC/C(C)=C/C(C)=O)C(C)C (stereo not shown) [Compound 31, (3E,7E,12E)-11-isopropyl-4,8-dimethylpentadeca-3,7,12-triene-2,14-dione]
antiproliferative activity [1, 8]: potent antiproliferative activity

Molecule: C/C1=C\[C@H](O)C[C@@](C)(O)/C=C/[C@H](C(C)C)C[C@@H](O)/C(C)=C/CC1 [Compound 7, (1S,2E,4R,6R,7E,11E,13R)-2,7,11-cembratriene-4,6,13-triol]
cytotoxicity (PC-3M cells [6]): without cytotoxicity | anti-invasive activity (PC-3M cells [4]; 50 nM dose): potent anti-invasive activity

Molecule: C/C1=C/C(=O)C[C@](C)(O)/C=C/[C@H](C(C)C)CC/C(C)=C/CC1 [Compound 30, (1S,2E,4S,6R,7E,11E)-2,7,11-cembratriene-4-ol-6-one]
antiproliferative activity [1]: potent antiproliferative agent | antiproliferative activity [1, 8]: potent antiproliferative activity | IC50 ([1]; Mus musculus, Epithelial cell, 96 h): 15 µM | activity relative to parent compound 21 ([1]; at higher doses): no more active

stability in substrate control [7]: stable
Molecule: CC(=O)O[C@H]1/C=C(/C)CC/C=C(\C)CC[C@@H](C(C)C)/C=C/[C@@](C)(O)C1 [Compound 22, 6-O-acetyl-(1S,2E,4S,6R,7Z,11E)-2,7,11-cembratriene-4,6-diol]
antiproliferative activity [1]: reduced activity
